Results as given in article PMC9145754, “Novel Soloxolone Amides as Potent Anti-Glioblastoma Candidates: Design, Synthesis, In Silico Analysis and Biological Activities In Vitro and In Vivo” (Pharmaceuticals, 2022).

What was measured:
[1] = tested on: HeLa cells; test: MTT cytotoxicity assay, HeLa; format: cell-based; conditions: Homo sapiens, 24 h, read-out: IC50, Cervix, HeLa
Procedure: (§1) In the first step of the study, we analyzed the cytotoxicity of novel soloxolone derivatives 1–12 in a panel of tumor cells, including human cervical carcinoma HeLa, human duodenal carcinoma HuTu-80 and murine melanoma B16 cells, as well as human non-transformed hFF3 foreskin fibroblasts. The cells were treated with derivatives for 24 h and cell viability was evaluated by 3-(4,5-dimethylthiazol-2-yl)-2,5-diphenyltetrazolium bromide (MTT) assay. SM was used as the reference compound.
(§2) The cells in the exponential growth phase were seeded in quadruplicate in 96-well plates at a density of 1 × 10^4 cells/well for HeLa, U87, U118, KELLY and Neuro2a cells; 1.5 × 10^4 cells/well for HuTu-80 cells; 2 × 10^4 cells/well for B16 cells; and 7 × 10^3 cells/well for hFF3 fibroblasts. Cells were incubated under standard conditions overnight followed by their treatment with the investigated compounds (1–20 µM) for 24 h. Then, 10 µL of MTT solution was added to the cells to a final concentration of 0.5 mg/mL and plates were placed under standard conditions for 3 h followed by an aspiration of MTT-containing medium and a dissolution of formazan crystals with 100 µL of DMSO. The absorbance of each well was read at test and reference wavelengths of 570 and 620 nm, respectively, on a Multiscan RC plate reader (Thermo LabSystems, Helsinki, Finland).

[2] = tested on: hFF3 foreskin fibroblasts; test: MTT cytotoxicity assay, hFF3 fibroblasts; format: cell-based, human; conditions: Homo sapiens, HFF-3, 24 h
Procedure: as §1, §2

[3] = tested on: brain tumor cells; test: MTT cytotoxicity, values summarised over brain tumor cells; format: cell-based; conditions: range over U87, U118, KELLY, Neuro2a; read-out: IC50 against brain malignant cells
Procedure: To evaluate the antitumor activity of the synthesized soloxolone amides in brain tumor cells, the cytotoxicity of compounds 4–12, predicted as BBB-permeable (Figure 3), was further analyzed in human glioblastoma U87 and U118 cells, as well as human neuroblastoma KELLY and murine neuroblastoma Neuro2a cells.
as §2

[4] = tested on: U87 cells; test: Cytotoxicity of 12 with chloroquine (MTT); format: cell-based; conditions: U87, 12 with chloroquine 50 µM, 24 h
Procedure: Given that pentacyclic triterpenoids can induce tumor cell death not only by the apoptotic pathway but also by triggering autophagy, we next studied whether 12 stimulated autophagy in glioblastoma cells. For this, U87 and U118 cells were incubated with tryptamide 12 at toxic concentrations (2 or 4 µM) for 24 h followed by cell staining with monodansylcadaverine (MDC), a fluorescent dye specifically labeling autophagosomes. […] Considering that autophagy can be associated not only with cell death but also with cytoprotection, its role in the cytotoxicity of 12 in glioblastoma cells was further studied.
In order to evaluate whether autophagy plays an important role in compound 12-induced glioblastoma cell death, U87 cells were seeded in quadruplicate at a density of 1 × 10^4 cells/well in 96-well plates, incubated overnight under standard conditions and co-treated with 12 at 1–5 μM and chloroquine (CQ) at 50 μM for 24 h. Then, cell viability was measured using an MTT test and the curves of cytotoxicity of 12 in the presence or absence of CQ were compared.

[5] = tested on: U87 cells; test: Colony formation assay, U87; format: cell-based, human; conditions: for decrease of surface area covered by cell colonies compared to the control: 14 days
[6] = tested on: glioblastoma cells; test: Cell survival at non-toxic concentrations; format: cell-based; conditions: 12 at 25–500 nM (non-toxic concentrations)
Procedure: To evaluate the antitumor potential of 12 more comprehensively, its effects at non-toxic concentrations (25–500 nM; cell survival of ≥90%) on a range of metastatic-related processes in glioblastoma cells were studied. Firstly, we investigated the inhibitory activity of 12 on the clonogenic capacity of tumor cells in vitro, which reflects their ability to form colonies from single cells which characterizes the stemness of tumor cells and plays a crucial role in metastasis.

SMILES: CC1(C)C(=O)C(C#N)=C[C@]2(C)C3=CC(=O)[C@@H]4[C@@H]5C[C@@](C)(C(=O)NCCc6c[nH]c7ccccc67)CC[C@]5(C)CC[C@@]4(C)[C@]3(C)CC[C@@H]12 [compound 12]
- IC50 [1]: 1500 ± 100 nM
- IC50 [2]: 1400 ± 200 nM
- IC50 [3]: 1600 to 1900 nM
- effect of chloroquine on cytotoxic activity of 12 [4]: did not affect the cytotoxic activity
- decrease of surface area covered by cell colonies compared to the control ([5]; U87, 12 at 200 nM): 2.1 fold
- decrease of surface area covered by cell colonies compared to the control ([5]; U87, 12 at 500 nM): 2.4 fold
- inhibitory effect on clonogenic growth ([5]; U87, 12 at 50 and 100 nM): statistically insignificant
- cell survival [6]: ≥ 90%
